Assay results as given in patent US7893299B2, “Interleukin-1 and tumor necrosis factor-αmodulators; syntheses of such modulators and methods of using such modulators” (Nereus Pharmaceuticals, Inc., priority 2005, dated 2011).
Like-named read-outs stand apart in the source and are kept apart here.

What was measured:
[1] = test system: LPS/D-Gal administration; assay: mortality after LPS/D-Gal administration; type: in vivo; conditions: i.p., TTL3 administration 45 minutes prior to LPS
[2] = test system: U266 (MM); assay: 48 hr cytotoxicity, U266; type: cell-based, human
Description: B16-F10 (ATCC; CRL-6475), DU 145 (ATCC; HTB-81), HEK293 (ATCC; CRL-1573), HT-29 (ATCC; HTB-38), LoVo (ATCC; CCL-229), MDA-MB-231 (ATCC; HTB-26), MIA PaCa-2 (ATCC; CRL-1420), NCI-H292 (ATCC; CRL-1848), OVCAR-3 (ATCC, HTB-161), PANC-1 (ATCC; CRL-1469), PC-3 (ATCC; CRL-1435), RPMI 8226 (ATCC; CCL-155) and U266 (ATCC; TIB-196) are maintained in appropriate culture media. The cells are cultured in an incubator at 37° C. in 5% CO2 and 95% humidified air.
For cell growth inhibition assays, B16-F10, DU 145, HEK293, HT-29, LoVo, MDA-MB-231, MIA PaCa-2, NCI-H292, OVCAR-3, PANC-1, PC-3, RPMI 8226 and U266 cells are seeded at 1.25×10^3, 5×10^3, 1.5×10^4, 5×10^3, 5×10^3, 1×10^4, 2×10^3, 4×10^3, 1×10^4, 7.5×10^3, 5×10^3, 2×10^4, 2.5×10^4 cells/well respectively in 90 μl complete media into Corning 3904 black-walled, clear-bottom tissue culture plates. 20 mM stock solutions of compounds of Formula II, IIA, and IIB are prepared in 100% DMSO, aliquoted and stored at −80° C. Compounds of Formula II, IIA, and IIB are serially diluted and added in triplicate to the test wells resulting in final concentrations ranging from of 20 μM to 0.2 pM. […]
Following 48 hours of drug exposure, 10 μl of 0.2 mg/ml resazurin (obtained from Sigma-Aldrich Chemical Co.) in Mg^2+, Ca^2+ free phosphate buffered saline is added to each well and the plates are returned to the incubator for 3-6 hours. Since living cells metabolize Resazurin, the fluorescence of the reduction product of Resazurin is measured using a Fusion microplate fluorometer (Packard Bioscience) with λex=535 nm and λem=590 nm filters. […]
The cytotoxicity assays were performed by seeding individual cell lines at appropriate density in the 96 well flat-bottomed plates and allowed to attach for 24 hours at 37° C., 5% CO2 and 95% humidified air (RPMI 8226 and U266 cells were plated in 96 well plates on the day of compound addition). […] Cell viability was assessed 48 hours later by measuring the fluorescence of the reduction product of Resazurin by a Fusion microplate fluorometer (PerkinElmer) with λex=535 nm and λem=590 nm filters. […]

[3] = test system: RPMI 8226 (MM); assay: 48 hr cytotoxicity, RPMI 8226; type: cell-based, human
Description: Human colon adenocarcinoma HT-29 (ATCC# HTB-38), prostate adenocarcinoma PC-3 (ATCC# CRL-1435), breast adenocarcinoma MDA-MB231 (ATCC# HTB-26), Multiple Myeloma RPMI 8226 (ATCC# CCL-155) and U266 (ATCC # TIB-196) cell lines and human normal fibroblast CCD-27sk (ATCC# CRL-1475) were all purchased from ATCC (Manassas, Va.). The cells were maintained in their respective ATCC recommended culture media at 37° C., 5% CO2 and 95% humidified air.
The cytotoxicity assays were performed by seeding individual cell lines at appropriate density in the 96 well flat-bottomed plates and allowed to attach for 24 hours at 37° C., 5% CO2 and 95% humidified air (RPMI 8226 and U266 cells were plated in 96 well plates on the day of compound addition). Serially diluted NPI-1387 was added in triplicate to cells at concentrations ranging from 160 nM to 20 μM. Final concentration of 0.25% (v/v) DMSO was used as the vehicle control. Cell viability was assessed 48 hours later by measuring the fluorescence of the reduction product of Resazurin by a Fusion microplate fluorometer (PerkinElmer) with λex=535 nm and λem=590 nm filters. The IC50 values (the drug concentration at which 50% of the maximal observed cytotoxicity is established) were calculated in XLFit 3.0 or XLFit 4.0 (ID Business Solutions Ltd) using a sigmoidal dose response model.

[4] = test system: PC-3 colony formation; assay: PC-3 clonogenicity assay; type: cell-based
Description: PC-3 cells in 10 cm tissue culture dishes (200 cells/dish) were treated with 5 μM, 10 μM and 20 μM NPI-1387 for 0.5-24 hours in triplicates. DMSO was used as vehicle control. After each time point of drug treatment, the medium was removed, the dishes were washed two times with Dulbecco's phosphate buffered saline (DPBS), and supplied with fresh medium. Cells were cultured for 10 days with the medium replenished every 3 days. On the 10th day, dishes were washed with cold DPBS, fixed for 10 minutes in ice-cold 100% methanol at 4° C., and the colonies were stained with 0.5% (w/v) crystal violet. Colonies were counted manually, and the results expressed as % of colonies in relation to their respective vehicle control.

[5] = test system: HS766T cells; assay: apoptosis by PI FACS analysis, HS766T; type: cell-based, human; conditions: combination treatment with Salinosporamide A, increased from 4%
Text: Novel diterpene inhibitors of NFκB derived from acanthoic acid (NPI-1342 (Formula IIB-a1) and NPI-1387; compound 24 under scheme 4 above) show measurable effects in human pancreatic cancer cell lines in vitro. Seven of the nine cell lines were moderately sensitive to apoptosis induced by death receptor ligand Tumor Necrosis Factor (TNF) related apoptosis-inducing ligand (TRAIL). […] Specific silencing of NFkB/p65 expression mimicked these effects. Furthermore, combination treatment of Salinosporamide A and either NPI-1342 or NPI-1387 led to induction of apoptosis as measured by PI FACS analysis. Specifically, levels of DNA fragmentation increased from 4% to 50% in HS766T cells and from 4% to 52% in Panc1 cells. The inhibitory effects of NPI-1342, NPI-1387 on NFκB were evaluated by Electromobility Shift Assays and confirmed by confocal microscopy.

[6] = test system: Bcl-2-overexpressing MM.1S cells; assay: viability of Bcl-2-overexpressing MM.1S cells; type: cell-based; conditions: 48 hours; 0, 12, 25 and 50 uM
Description: Two cell-based assays were treated with NPI-1387 for 48 hours at concentrations of 0, 12, 25 and 50 uM. Both Bcl-2-overexpressing MM.1S cells and bortezomib-resistant DHL-4 lymphoma cells were used and the percentage of viable cells of each was recorded. […] (See FIG. 67).

[7] = test system: TNF-α induced nuclear factor-κB (NF-κB) activation; assay: HEK293 NF-κB/Luciferase reporter cell line; type: cell-based

## C=C[C@@]1(C)CCC=C2[C@H]1CC[C@@H]1[C@](C)(C(=O)OC)CCC[C@@]21C [TTL3]
[1]
  Mortality 24 hours: 2/10
  Mortality 48 hours: 2/10

## C=CC(=O)C1(C)CCCC2(C)C3=CCC(C)(C=C)C[C@@H]3CC[C@H]12 (stereo in doubt) [NPI-1387, 1-[(1S,4aS,7R)-1,4a,7-Trimethyl-7-vinyl-1,2,3,4,4a,6,7,8,8a,9,10,10a-dodecahydro-1-phenanthrenyl]-2-propen-1-one]
[2]
  IC50: 7 ± 1.9 µM
[2]; Homo sapiens, U-266, 48 h
  IC50: 8.7 ± 6.4 µM
[3]
  IC50: 5.5 ± 0.8 µM
[3]; Homo sapiens, RPMI-8226, 48 h
  IC50: 5.1 ± 1 µM
[4]; 5 μM, 10 μM and 20 μM for 0.5-24 hours
  PC-3 colony formation: inhibits the colony formation of PC-3 cancer cells in a time-dependent and dose-dependent fashion
[4]; exposure of 6 hr to 20 μM
  PC-3 colony formation: completely abolish
[5]
  levels of DNA fragmentation: 50%
[6]
  percentage of viable cells: marked decrease in the percentage of viable cells
[7]
  TNF-α induced NF-κB activation: reduced TNF-α induced nuclear factor-κB (NF-κB) activation
